The subject of test [1] is MCF7. The test is described as follows: Cytotoxicity against human MCF7 cells assessed as cell viability after 48 hrs by MTT assay. It is filed as functional, cell-based. Particulars: MCF7, 48 h. A general note: Tetrazolium assays rely on reduction of a dye to a coloured formazan, in cell work by metabolically active cells.
In test [2] the test system is HeLa. The test is described as follows: Cytotoxicity against human HeLa cells assessed as cell viability after 48 hrs by MTT assay. The class given is functional, cell-based.
The subject of test [3] is A549. Nature of the test: Cytotoxicity against human A549 cells assessed as cell viability after 48 hrs by MTT assay. Particulars: A549, 48 h. The class given is functional, cell-based.
Test [4] has as its system DNA. Nature of the test: Binding affinity to calf thymus DNA assessed as hypochromicity/bathochromic shift after 120 mins by UV-vis absorption spectra analysis. The class given is nucleic-acid assay. Particulars: Bos taurus.
Test [5] concerns HeLa. Nature of the test: Potency index, ratio of amonafide IC50 to compound IC50 for human HeLa cells. The class given is functional.
In test [6] the test system is DNA. The test is described as follows: Binding affinity to calf thymus DNA assessed as change in melting temperature at 5 uM by UV spectrophotometric analysis. It is filed as nucleic-acid assay. The note with it: Bos taurus.
Test [7] deals with DNA. The test is described as follows: Binding affinity to calf thymus DNA by fluorescent spectra analysis. The class given is nucleic-acid assay. Particulars: Bos taurus.
The test system of test [8] is A549. Nature of the test: Potency index, ratio of amonafide IC50 to compound IC50 for human A549 cells. It is filed as functional.
Test [9] has as its system DNA. The test is described as follows: Binding affinity to calf thymus DNA at compound to DNA ratio 0.1 to 0.5 by CD spectra analysis. It is filed as nucleic-acid assay. The note with it: Bos taurus.
The test system of test [10] is DNA. Nature of the test: Binding affinity to calf thymus DNA assessed as melting temperature at 5 uM by UV spectrophotometric analysis (reference value: 59.7 degC). It is filed as nucleic-acid assay. The note with it: Bos taurus.
Test [11] deals with MCF7. Nature of the test: Potency index, ratio of amonafide IC50 to compound IC50 for human MCF7 cells. The class given is functional.
Test [12] concerns DNA. Nature of the test: Binding affinity to calf thymus DNA at compound to DNA ratio >= 2 by CD spectra analysis. It is filed as nucleic-acid assay. The note with it: Bos taurus.

Calls of active or inactive are those of the source. No cut-off for these calls is given here.

`CN(C)CCN1C(=O)c2cccc3c(-n4cccn4)ccc(c23)C1=O`: the values for the half-inhibitory concentration (IC50) in the test on MCF7 [1], in the test with HeLa [2] and in the test with A549 [3] were 2.72 µM, 9.47 µM and above 50 µM, respectively.

Turning to `CN(C)CCN1C(=O)c2cccc3c(-n4cc(-c5ccc(Br)cc5)cn4)ccc(c23)C1=O`, the IC50 – broadly, the midpoint of a concentration-inhibition curve – with MCF7 [1] is 10.7 µM; in the test with HeLa [2], 3.47 µM; in the test on A549 [3], above 50 µM.

As to `COc1cc(-c2cnn(-c3ccc4c5c(cccc35)C(=O)N(CCN(C)C)C4=O)c2)cc(OC)c1OC`, the Kb in the test with DNA [4] was 1.01 ×10⁴ /M. For the same compound, the “Ratio IC50” value is reported as 2.2 in the test on HeLa [5], 2.5 in the test with A549 [8] and 3.3 in the test on MCF7 [11]. Further, the ΔTm (commonly the change in melting temperature against a reference sample) in the test on DNA [6] was 1.8 °C. In the test on DNA [7], this compound came in with a Kbapp of 1.04 ×10⁴ /M. The figures for the IC50 with MCF7 [1], with HeLa [2] and in the test with A549 [3] were 0.51 µM, 3.09 µM and 5.14 µM, respectively. The result with DNA [9] and with DNA [12] was Active. Besides, in the test with DNA [10], the Tm was 61.5 °C.

For the compound `CN(C)CCN1C(=O)c2cccc3c(-n4cc(-c5cc(C(F)(F)F)cc(C(F)(F)F)c5)cn4)ccc(c23)C1=O`, the IC50 was determined as 3.39 µM in the test with MCF7 [1], 16.6 µM with HeLa [2] and 25.4 µM in the test on A549 [3].

For the compound `CN(C)CCN1C(=O)c2cccc3c(-n4cc(-c5ccccc5)cn4)ccc(c23)C1=O`, the figures for the 50% inhibitory concentration (IC50) with MCF7 [1], in the test on HeLa [2] and in the test on A549 [3] were 1.58 µM, 6.5 µM and 8.52 µM, respectively.

Regarding `CN(C)CCN1C(=O)c2cccc3cc(N)cc(c23)C1=O` [AMONAFIDE], the half-maximal inhibitory concentration (IC50) in the test on HeLa [2] turned out to be 6.71 µM.

Take `CN(C)CCN1C(=O)c2cccc3c(-n4cc(-c5ccc(Cl)cc5)cn4)ccc(c23)C1=O`: the IC50 is 4.24 µM in the test on MCF7 [1], 10.6 µM in the test on HeLa [2] and 17.2 µM in the test with A549 [3].

Turning to `CN(C)CCN1C(=O)c2cccc3c(-n4cc(-c5ccc(C(F)(F)F)cc5)cn4)ccc(c23)C1=O`, the results for the IC50 with MCF7 [1], in the test with HeLa [2] and in the test with A549 [3] were 4.26 µM, 13.3 µM and 25 µM, respectively.

Regarding `COc1ccc(-c2cnn(-c3ccc4c5c(cccc35)C(=O)N(CCN(C)C)C4=O)c2)cc1`, the IC50 in the test with MCF7 [1] is 2.62 µM; in the test with HeLa [2], 4.99 µM; with A549 [3], 7.69 µM.

As for `COc1cccc(-c2cnn(-c3ccc4c5c(cccc35)C(=O)N(CCN(C)C)C4=O)c2)c1`, the half-maximal inhibitory concentration (IC50) was 1.99 µM with MCF7 [1], 14.6 µM in the test with HeLa [2] and 12 µM in the test on A549 [3].

Regarding `COc1ccc(-c2cnn(-c3ccc4c5c(cccc35)C(=O)N(CCN(C)C)C4=O)c2)cc1OC`, the results for the IC50 with MCF7 [1], with HeLa [2] and in the test with A549 [3] were 0.79 µM, 3.5 µM and 11.8 µM, respectively.

With `CN(C)CCN1C(=O)c2cccc3c(-n4cc(-c5ccc(F)cc5)cn4)ccc(c23)C1=O`, the IC50 with MCF7 [1] was determined as 1.56 µM; with HeLa [2], 3.1 µM; with A549 [3], 24 µM.

As to `Cc1ccc(-c2cnn(-c3ccc4c5c(cccc35)C(=O)N(CCN(C)C)C4=O)c2)cc1`, the “Ratio IC50” value in the test on A549 [8] was determined as 2.6. Also, the IC50 with MCF7 [1] was 17 µM; in the test on HeLa [2], 4.6 µM; with A549 [3] it was 5.09 µM.

(Values after ChEMBL document CHEMBL3102804, “Synthesis, anticancer activity and DNA-binding properties of novel 4-pyrazolyl-1,8-naphthalimide derivatives” (Bioorg Med Chem Lett, 2014).)
